This is an account of results in patent US20140171475A1, “ANIMAL ECTOPARASITE-CONTROLLING AGENT” (SUMITOMO CHEMICAL COMPANY, LIMITED, priority 2011, published 2014).

In test [1] the test system is Haemaphysalis longicornis (young ticks) on mouse. Nature of the test: Dropping application against mouse-infested ticks. Format: in vivo. As to conditions: topical, 48 h, 0.1% w/v solution, 200 μL dropwise to whole body surface of mouse, 2 days after application, read-out: Mortality. The protocol: The previous day of a dropping application, 30 test ticks (Haemaphysalis longicornis, young ticks) were deposited on a mouse. Before the dropping application, uninfested ticks were removed.
Any one of the present benzylamide compounds (12), (13), (15), (28), (29), (30), (31), (32), (33), (34), (36), (37) and (38) (5 mg) was dissolved in a mixture (5 mL) of propylene carbonate and diethylene glycol monoethyl ether in equal volume to prepare a 0.1% w/v solution. Said solution (200 μL) was applied dropwise to the whole body surface of a mouse with a pipette. To a control group, the mixture (200 μL) alone was applied. Said application was repeated 3 times per group.
Two (2) days after the application, the number of dead ticks was examined and the mortality was calculated by the following formula:
Mortality (%)=100×(number of dead ticks/infested ticks before dropping application)

The subject of test [2] is Ctenocephalides felis fleas on cat. In words: Dropping application against cat-infested fleas. Format: in vivo. As to the method: The previous day of a dropping application, 50 test fleas (Ctenocephalides felis, adult ticks) were deposited on a cat. Before the dropping application, infested flaes were counted.
Each of the present benzylamide compound (13) (specified weight: 0.375 g, 0.75 g and 1.5 g) was dissolved in diethylene glycol monoethyl ether (6.0 g) to prepare a test solution. Said test solution was directly dropped on the skin of the neck and back of the cat while pushing aside fur thereon at a rate of 0.1 ml per 1 kg of the cat's body weight (dose amount: 5 mg/kg, 10 mg/kg and 20 mg/kg). This is referred to as a test group. On the other hand, diethylene glycol monoethyl ether alone was applied dropwise to a placebo group.
Two (2) days after the application, the number of living fleas, which were infesting the cats, was examined. When the examination was completed, all infested fleas were removed from the cats.
Both of 14 days and 28 days after the application, 50 test fleas (Ctenocephalides felis, adult ticks) were repeatedly deposited on a cat respectively. Two (2) days after the repeated deposition, the number of living ticks, which were infesting the […], was examined respectively. When each of the examination was completed, all infested ticks were removed from the dogs.
The infestation rate and control rate were calculated by the following formulae: […]
Method of calculating infestation rate and control rate at the initial stage (2 days) after the application:
Infestation rate (%) at X days after application=(number of living fleas at X days/number of living fleas before application)×100
Control rate (%) at X days after application {(infestation rate of test group before application infestation rate of test group at X days)/infestation rate of test group before application}×100
Method of calculating infestation rate and control rate at both 16 days and 30 days after the application:
Infestation rate (%) at X days after application=(number of living fleas at X days/number of living fleas repeatedly deposited)×100
Control rate (%) at X days after application {(infestation rate of placebo group at X days−infestation rate of test group at X days)/infestation rate of placebo group after X days}×100
In addition, if an infestation rate of a test group is higher than a placebo group, then the control rate is deemed to be 0%.

As to `O=C(NCc1cc(C2=NOC(c3cc(Cl)cc(Cl)c3)(C(F)(F)F)C2)ccc1Cl)C1CC1` (stereo not shown) [Compound (13)], in test [1], the pest or weed control at 0.1 % strength is not below 60%. Further, the “Flea control rate (%) at X days after the application” value in test [2] (dropping application 5 mg/kg, 2 days) was found to be 92%; in test [2] (dropping application 5 mg/kg, 16 days) it was 97%; in test [2] (dropping application 5 mg/kg, 30 days), 97%; in test [2] (dropping application 10 mg/kg, 2 days), 100%; in test [2] (dropping application 10 mg/kg, 16 days), 100%; in test [2] (dropping application 10 mg/kg, 30 days), 100%. For the same compound, the “Flea control rate (%) at X days after the application” value in test [2] (dropping application 20 mg/kg, 2 days) worked out at 100%; in test [2] (dropping application 20 mg/kg, 16 days) it was 100%; in test [2] (dropping application 20 mg/kg, 30 days), 100%.
